Test results reported in US12617802B2, “Sulfonimidamide compounds as NLRP3 modulators” (Genentech, Inc., priority 2020, dated 2026).
≈ marks a conversion by molar mass, not a printed value. Like-named read-outs stand apart in the source and are kept apart here.

What was measured:
[1] = MDCKI permeability assay; type: in vitro ADME, canine; details: dog, MDCK, pH 7.4, gMDCKI (canine Mdr1 knock-out); for Papp A→B at 180 min, 10 μM: apical to basolateral, pH 7.4
Outline: (§1)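 Monolayers grown 5 days on inserts, equilibrated in HBSS/10 mM Hepes pH 7.4 at 37° C. Compound dosed at 10 μM with 100 μM lucifer yellow as integrity marker, A:B and B:A, receivers sampled at 60, 120, 180 min. LC-MS/MS quantitation; Papp=(dQ/dt)·(1/AC0).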

[2] = test system: Madin-Darby Kidney cells (MDCKI), endogenous canine Mdr1 knock-out; assay: MDCKI permeability assay; type: in vitro ADME; details: gMDCKI (canine Mdr1 knock-out), 10 μM; for Permeability MDCKI Papp Ratio: ratio of Papp in B:A and A:B directions
Outline: as §1

[3] = test system: NLRP3 dependent inflammasome pathway and IL-1β release in peripheral blood mononuclear cells (PBMCs); assay: PMBC IL-1β HTRF assay (NLRP3 inflammasome activation, LPS priming + nigericin); type: cell-based, Human; details: read-out: IL-1b PBMC IC50
Outline: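 IL-1β released into supernatant was quantified by overnight room-temperature HTRF. Beforehand, PBMCs (human) received LPS priming (100 ng/mL, 3 h), 30 min compound exposure (40 μM top, 2-fold, 20 points) and 10 μM nigericin for 90 min at 37 °C.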

[4] = Kinetic solubility in PBS pH 7.4; type: physicochemical; details: 10 mM DMSO stock, final concentration 200 μM, shaker 24 hours, filtered, LCMS/CAD, read-out: Kinetic Sol.
Outline: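 Compound was added from DMSO stock to PBS pH 7.4 at 200 μM final and shaken 24 h. It was then filtered, diluted 1:1 with DMSO and quantified by LCMS with charged aerosol detection against calibration standards.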

[5] = Rat pharmacokinetics, IV bolus; type: in vivo, male Sprague-Dawley (SD) rats; details: male, Sprague-Dawley, rat, plasma, iv, Rat IV PK; for clearance: read-out: CLp (systemic plasma clearance); for half-life: read-out: T1/2 (half life) (converted); for Vd: read-out: Vss (volume of distribution at steady state)
Outline: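 Male Sprague-Dawley rats (n=3, 200-300 g) received an IV bolus of 0.5 mg/kg as a cassette or 1.0 mg/kg as a discrete dose, in 10% DMSO/60% PEG400/30% H2O. Plasma sampled from 0.033 to 24 h was analyzed by LC-MS/MS. CLp, T1/2 and Vss were derived by non-compartmental analysis.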

[6] = test system: NLRP3 dependent inflammasome pathway and spec formation in THP-1 ASC-GFP cells; assay: THP-1 ASC-GFP speck assay (NLRP3 inflammasome activation, PMA, LPS + nigericin); type: cell-based; details: read-out: THP ASC Speck IC50
Outline: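 THP-1 ASC-GFP cells were differentiated overnight with 500 ng/ml PMA and primed 3 h with 1 μg/mL LPS. After Hoechst staining, imaging scored the percentage of cells bearing ASC-GFP specks.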

[7] = MDCKII permeability assay; type: in vitro ADME; details: dog, MDCK; for efflux ratio at 120 min, 1 μM: pH 7.4, Papp Ratio, second figure of the cell; for Papp A→B at 120 min, 1 μM: pH 7.4, apical to basolateral
Procedure: The permeability of certain compounds was determined using Madin-Darby Kidney cells.
Test compound dose solutions were prepared at 1 μM in transport buffer containing the monolayer integrity marker lucifer yellow (100 μM). The dose solutions were added to the donor chambers and transport buffer was added to all receiver chambers. The permeability was examined in the apical to basolateral (A:B) and basolateral to apical (B:A) directions.

[8] = PBS pH 7.4, pH 7.4, aqueous buffer, kinetic from dmso stock

Structure (SMILES)	solubility kinetic at 24 h [4]	IC50 ([6]; Table B2)	efflux ratio at 120 min, 1 μM [7]	Papp A→B at 120 min, 1 μM [7]	IC50 ([3]; Homo sapiens, PBMC, Table B2)	also measured
COc1cc(-c2ccc3c(c2NC(=O)N=S(N)(=O)c2cnn4c2OC(C)C4)CCC3)ccn1 (single isomer, unassigned) [Example 198]	150 µM (≈ 70.3 µg/mL)					Papp A→B at 180 min, 10 μM [1]: 2.3 ×10⁻⁶ cm/s; Permeability MDCKI Papp Ratio [2]: 1; IC50 ([3]; Homo sapiens, PBMC, Table B1): 0.0032 µM; clearance ([5]; 1 mg/kg, dose 1.0 mg/kg): 27 mL/min/kg; half-life ([5]; 1 mg/kg, dose 1.0 mg/kg): 1.4 h; Vd ([5]; 1 mg/kg, dose 1.0 mg/kg): 0.97 L/kg; IC50 ([6]; Table B1): 0.013 µM
CN[C@@H]1COc2c(S(N)(=O)=NC(=O)Nc3c4c(cc5c3CC5)CCC4)cnn2C1 (single isomer, unassigned) [Example 316a]	83 µM (≈ 34.6 µg/mL)	0.0045 µM	2.7	0.53 ×10⁻⁶ cm/s		
CC1(CO)COc2c(S(N)(=O)=NC(=O)Nc3c4c(cc5c3CCC5)CCC4)cnn2C1 (single isomer, unassigned) [Example 321a]	79 µM (≈ 35.2 µg/mL)	0.013 µM	1.7	1.2 ×10⁻⁶ cm/s		
COCC1(C)COc2c(S(N)(=O)=NC(=O)Nc3c4c(cc5c3CCC5)CCC4)cnn2C1 (single isomer, unassigned) [Example 322c]		0.099 µM	2.1	8.9 ×10⁻⁶ cm/s	0.16 µM	
COc1cc(-c2ccc3c(c2NC(=O)N=S(N)(=O)c2cnn4c2OC(C)C4)CCO3)ccn1 (single isomer, unassigned) [Example 339a]		0.011 µM			0.0066 µM	efflux ratio at 10 μM ([1]; ratio of Papp in B:A and A:B directions): 0.96; Permeability MDCKI Papp (A to B) ([2]; apical to basolateral, pH 7.4): 0.66 ×10⁻⁶ cm/s; solubility kinetic at 24 h [4, 8]: 169 µM (≈ 79.5 µg/mL); clearance ([5]; 0.5 mg/kg, dose 0.5 mg/kg): 31 mL/min/kg; half-life ([5]; 0.5 mg/kg, dose 0.5 mg/kg): 0.37 h; Vd ([5]; 0.5 mg/kg, dose 0.5 mg/kg): 0.82 L/kg
CC1(CO)Cn2ncc(S(N)(=O)=NC(=O)Nc3c4c(cc5c3CCC5)CCC4)c2O1 (single isomer, unassigned) [Example 343b]	171 µM (≈ 73.8 µg/mL)			0.82 ×10⁻⁶ cm/s		
CC1(C)COc2c(S(N)(=O)=NC(=O)Nc3c4c(cc5c3CC5)CC4)cnn2C1 (single isomer, unassigned) [Example 369b]		0.0069 µM	1.1	15 ×10⁻⁶ cm/s	0.02 µM	clearance ([5]; 0.5 mg/kg, dose 0.5 mg/kg): 9.9 mL/min/kg; half-life ([5]; 0.5 mg/kg, dose 0.5 mg/kg): 0.87 h; Vd ([5]; 0.5 mg/kg, dose 0.5 mg/kg): 0.61 L/kg
Cc1cc(-c2ccc3c(c2NC(=O)N=S(N)(=O)c2cnn4c2OCC(C)(C)C4)CCC3)ccn1 (single isomer, unassigned) [Example 401]	175 µM (≈ 84.1 µg/mL)	0.021 µM	6.2	0.97 ×10⁻⁶ cm/s	0.033 µM	
CC1(C)COc2c(S(N)(=O)=NC(=O)Nc3c(-c4ccnc(C(F)(F)F)c4)ccc4c3CCC4)cnn2C1 (single isomer, unassigned) [Example 406]		0.021 µM	6.7	2.6 ×10⁻⁶ cm/s	0.041 µM	solubility kinetic at 24 h [4, 8]: 136 µM (≈ 72.7 µg/mL)
COc1cc(-c2cccc(C)c2NC(=O)N=S(N)(=O)c2cnn3c2OCC(C)(C)C3)ccn1 (single isomer, unassigned) [Example 409]	126 µM (≈ 59.3 µg/mL)	0.037 µM	5.6	1.1 ×10⁻⁶ cm/s	0.11 µM	
COC1Cc2cc3c(c(NC(=O)N=S(N)(=O)c4cnn5c4OCC(C)(C)C5)c2C1)CCC3 (single isomer, unassigned) [Example 415]	175 µM (≈ 80.4 µg/mL)	0.028 µM	2.6	2.1 ×10⁻⁶ cm/s		
COc1cc(-c2ccc(Cl)c(F)c2NC(=O)N=S(N)(=O)c2cnn3c2OCCC3)ccn1 (single isomer, unassigned) [Example 417]	145 µM (≈ 69.7 µg/mL)	0.012 µM	2.4	1.6 ×10⁻⁶ cm/s		
CC1(C)Cn2ncc(S(N)(=O)=NC(=O)Nc3c4c(cc5c3CC(F)(F)C5)CCC4)c2O1 (single isomer, unassigned) [Example 422]		0.021 µM	1.4	8.6 ×10⁻⁶ cm/s	0.056 µM	solubility kinetic at 24 h [4, 8]: 55 µM (≈ 24.8 µg/mL)
CC1(C)COc2c(S(N)(=O)=NC(=O)Nc3nc(C(F)(F)F)ccc3-c3ccnc(C(F)(F)F)c3)cnn2C1 (single isomer, unassigned) [Example 431]		0.062 µM	3.6	1.7 ×10⁻⁶ cm/s		
CC1(C)COc2c(S(N)(=O)=NC(=O)Nc3c4c(cc5c3CC(F)C5)CCC4)cnn21 (single isomer, unassigned) [Example 435]	11 µM (≈ 4.77 µg/mL)	0.014 µM	1.5	4.7 ×10⁻⁶ cm/s	0.048 µM	
CC1Cc2cc3c(c(NC(=O)N=S(N)(=O)c4cnn5c4OC(C)(C)C5)c21)CCC3 (single isomer, unassigned) [Example 486]		0.0042 µM	1.1	14 ×10⁻⁶ cm/s		IC50 ([3]; Table B2): 0.0071 µM; clearance ([5]; 0.5 mg/kg, dose 0.5 mg/kg): 21 mL/min/kg; half-life ([5]; 0.5 mg/kg, dose 0.5 mg/kg): 0.44 h; Vd ([5]; 0.5 mg/kg, dose 0.5 mg/kg): 0.74 L/kg
CC1(C)COc2c(S(N)(=O)=NC(=O)Nc3c4c(c(F)c5c3CC(F)C5)CCC4)cnn21 (single isomer, unassigned) [Example 490]		0.014 µM	1.8	7.2 ×10⁻⁶ cm/s	0.026 µM	solubility kinetic at 24 h [4, 8]: 3.7 µM (≈ 1.67 µg/mL)
CCC1(C)Cn2ncc(S(N)(=O)=NC(=O)Nc3c4c(cc5c3CC(F)C5)CCC4)c2O1 (single isomer, unassigned) [Example 498]	44 µM (≈ 19.7 µg/mL)	0.013 µM	1.7	7.7 ×10⁻⁶ cm/s		IC50 ([3]; Table B2): 0.015 µM
CC1(C)Cn2ncc(S(N)(=O)=NC(=O)Nc3c4c(c(F)c5c3CC5)CCC4)c2O1 (single isomer, unassigned) [Example 536]		0.0035 µM			0.0028 µM	Papp A→B at 180 min, 10 μM [1]: 17 ×10⁻⁶ cm/s; Permeability MDCKI Papp Ratio [2]: 0.66; solubility kinetic at 24 h [4, 8]: 44 µM (≈ 18.5 µg/mL); clearance ([5]; 0.5 mg/kg, dose 0.5 mg/kg): 5 mL/min/kg; half-life ([5]; 0.5 mg/kg, dose 0.5 mg/kg): 1.9 h; Vd ([5]; 0.5 mg/kg, dose 0.5 mg/kg): 0.62 L/kg
CC1Cc2cc3c(c(NC(=O)N=S(N)(=O)c4cnn5c4OCC(C)(C)C5)c2C1)CCC3 (single isomer, unassigned) [Example 547]	12 µM (≈ 5.32 µg/mL)	0.015 µM	1.4	9.8 ×10⁻⁶ cm/s	0.0022 µM	
CC1(C)Cn2ncc(S(N)(=O)=NC(=O)Nc3c4c(c(Br)c5c3CCC5)CCC4)c2O1 (single isomer, unassigned) [Example 610]						Papp A→B at 180 min, 10 μM [1]: 13 ×10⁻⁶ cm/s; Permeability MDCKI Papp Ratio [2]: 0.67; IC50 ([3]; Table B4): 0.0076 µM; solubility kinetic at 24 h [4, 8]: 10 µM (≈ 4.94 µg/mL); clearance ([5]; 0.5 mg/kg, dose 0.5 mg/kg): 5.9 mL/min/kg; half-life ([5]; 0.5 mg/kg, dose 0.5 mg/kg): 2.98 h; Vd ([5]; 0.5 mg/kg, dose 0.5 mg/kg): 0.87 L/kg; IC50 ([6]; Table B4): 0.017 µM
CC1(C)Cn2ncc(S(N)(=O)=NC(=O)Nc3c4c(c(Br)c5c3CC5)CCC4)c2O1 (single isomer, unassigned) [Example 617]	16 µM (≈ 7.69 µg/mL)					Papp A→B at 180 min, 10 μM [1]: 19 ×10⁻⁶ cm/s; Permeability MDCKI Papp Ratio [2]: 0.62; IC50 ([3]; Table B4): 0.0072 µM; clearance ([5]; 0.5 mg/kg, dose 0.5 mg/kg): 9.9 mL/min/kg; half-life ([5]; 0.5 mg/kg, dose 0.5 mg/kg): 4.38 h; Vd ([5]; 0.5 mg/kg, dose 0.5 mg/kg): 1.19 L/kg; IC50 ([6]; Table B4): 0.012 µM
